Key:
Format in all cases: cell-based
[1] = system: Escherichia coli ATCC 8739; assay: Antibacterial activity of silicone films, ISO 22196; settings: incubation 24 h at 37° C., detection limit log10(N)=1.4
Procedure: (§1) The antibacterial activity of the silicone compositions of the invention was tested on 6 lines of bacteria, according to the procedure for the ISO 22196 standard (second edition, 2011).
(§2) The lines of tested bacteria are: Klebsiella pneumoniae DSM 16609, Staphylococcus aureus ATCC 25923, Enterococcus faecalis ATCC 29212, Escherichia coli ATCC 8739, Acinetobacter baumannii CIP 70.34 and Enterobacter cloacae DSM 30054.
(§3) Silicone films were prepared according to Examples 2 and 3, comprising 0%, 2% or 5% of antimicrobial agent PHMG-DBS, OMIM-BF4 or DMIM-BF4 (7 types of silicone films were therefore prepared).
(§4) Square pieces of silicone films with dimensions 25 mm×25 mm were cut out, as well as squares of polypropylene of dimension 20 mm×20 mm. The latter were passed in the autoclave at 115° C. for 20 minutes.
(§5) The bacteria were cultivated overnight at 37° C. in an agar culture medium. Suspensions of bacteria were then prepared in a nutrient broth culture medium with a bacterial concentration of 6.10^5 CFU/ml.
(§6) Each silicone square (not sterilized) was placed on a lid of a Petri dish with a diameter of 55 mm, which itself was placed in a Petri dish with a diameter of 94 mm. 100 μl of bacterial suspension were deposited on each silicone square and spread out by means of a polypropylene square. 10 ml of sterile water were added in the bottom of the Petri dish with a diameter of 94 mm in order to ensure high relative humidity during incubation at 37° C. for 24 hours. For each silicone film type, three specimens were made.
(§7) After incubation, each silicone film was placed in a new Petri dish and washed with 10 ml of […] (SCDLP, according to the standard procedure of the ISO standard) for recovering the bacteria. After 5 washes, the SCDLP suspension was diluted down to 10^−6, and 1 ml of obtained solution was placed on a gelose plate PCA (duplicated). Each plate was incubated at 37° C. for 24 hours. The number of colonies on each Petri dish was then counted.
(§8) The viability of the bacteria depending on the obtained results was calculated by means of the following formula: […]
(§9) wherein: • N refers to the number of viable bacteria observed per cm^2 of each tested sample, • C refers to the average count of colonies on each gelose plate PCA, and • D refers to the dilution factor used for the counting.
(§10) The results of the viability measurements of the bacteria, expressed in log10(N), are gathered in Table 1, the detection limit having been set to a number of recovered bacteria equal to 10 (i.e. log10(N)=1.4).

[2] = system: Klebsiella pneumoniae DSM 16609; assay: as above; settings: incubation 24 h at 37° C., detection limit log10(N)=1.4
Procedure: as §1, §2, §3, §4, §5, §6, §7, §8, §9, §10

[3] = system: Enterobacter cloacae DSM 30054; assay: as above; settings: incubation 24 h at 37° C., detection limit log10(N)=1.4
Procedure: as §1, §2, §3, §4, §5, §6, §7, §8, §9, §10

[4] = system: Enterococcus faecalis ATCC 29212; assay: as above; settings: incubation 24 h at 37° C., detection limit log10(N)=1.4
Procedure: as §1, §2, §3, §4, §5, §6, §7, §8, §9, §10

[5] = system: Acinetobacter baumannii CIP 70.34; assay: as above; settings: incubation 24 h at 37° C., detection limit log10(N)=1.4
Procedure: as §1, §2, §3, §4, §5, §6, §7, §8, §9, §10

[6] = system: Staphylococcus aureus ATCC 25923; assay: as above; settings: incubation 24 h at 37° C., detection limit log10(N)=1.4
Procedure: as §1, §2, §3, §4, §5, §6, §7, §8, §9, §10

[7] = system: Candida albicans IHEM 14796; assay: Tests on yeast according to ISO 22196; settings: incubation 24 h
Procedure: The antibacterial activity of the silicone compositions of the invention was tested on the yeast line Candida albicans IHEM 14796, according to the procedure of the ISO 22196 standard (second edition, 2011).
(§11) The silicone films prepared in Example 5A were used.
The procedure followed is identical with that of Example 5A.

[8] = system: Penicillium chrysogenum HEM 20859; assay: Tests on a fungus according to ISO 16869 (modified); parameters: key: mark 0 is ascribed when no growth is observed; mark 1 is ascribed when beginning of growth is observed; mark 2 is ascribed when obvious growth is observed; settings: silicone film with 5% antimicrobial agent, 25° C., naked eye mark
Procedure: The antifungal activity of the silicone compositions of the invention was tested on the fungus line Penicillium chrysogenum HEM 20859, according to the procedure of the ISO 16869 standard (second edition, 2008).
as §11
Thus, each silicone film sample was placed in a Petri dish between a lower layer of nutrient salt agar (20 ml) and an upper layer of Peptone Dextrose agar in which fungus spores were dispersed. The remainder of the procedure of the aforementioned standard was followed.
The culture media were incubated at 25° C. for at least 48 h, and for up to 7 days.
The results are evaluated with the naked eye: • mark 0 is ascribed when no growth is observed, • mark 1 is ascribed when beginning of growth is observed, and • mark 2 is ascribed when obvious growth is observed.

[9] = silicone film with 2% antimicrobial agent
[10] = silicone film with 5% antimicrobial agent

Row | Structure (SMILES) | Viability of bacteria (log10(N)) Escherichia coli [1, 9] | Viability of bacteria (log10(N)) Escherichia coli [1, 10] | Viability of bacteria (log10(N)) Klebsiella pneumoniae [2, 9] | Viability of bacteria (log10(N)) Klebsiella pneumoniae [2, 10] | Viability of bacteria (log10(N)) Enterobacter cloacae [3, 9] | Viability of bacteria (log10(N)) Enterobacter cloacae [3, 10] | Viability of bacteria (log10(N)) Enterococcus faecalis [4, 9] | Viability of bacteria (log10(N)) Enterococcus faecalis [4, 10] | Viability of bacteria (log10(N)) Acinetobacter baumannii [5, 9] | Viability of bacteria (log10(N)) Acinetobacter baumannii [5, 10] | Viability of bacteria (log10(N)) Staphylococcus aureus [6, 9] | Viability of bacteria (log10(N)) Staphylococcus aureus [6, 10] | Viability of yeasts (log10(N)) Candida albicans [7, 9] | Viability of yeasts (log10(N)) Candida albicans [7, 10] | Observation of the growth of fungi Penicillium chrysogenum, Incubation for 48 h ([8]; 48 h) | Observation of the growth of fungi Penicillium chrysogenum, Incubation for 7 days ([8]; 7 days)
1 | CCCCCCCCn1cc[n+](C)c1.F[B-](F)(F)F [OMIM-BF4, 1-octyl-3-methylimidazolium tetrafluoroborate] | 1.4 log10(N) | 1.4 log10(N) | 3.3 log10(N) | 4.6 log10(N) | 3.6 log10(N) | 1.4 log10(N) | 3.6 log10(N) | 1.4 log10(N) | 5.8 log10(N) | 1.4 log10(N) | 1.6 log10(N) | 1.4 log10(N) | 6.1 log10(N) | 3.0 log10(N) |  | 
2 | CCCCCCCCCCCCn1cc[n+](C)c1.F[B-](F)(F)F [DMIM-BF4, 1-dodecyl-3-methylimidazolium tetrafluoroborate] | 1.4 log10(N) | 1.4 log10(N) | 1.4 log10(N) | 1.4 log10(N) | 1.4 log10(N) | 1.4 log10(N) | 1.4 log10(N) | 1.4 log10(N) | 1.6 log10(N) | 1.4 log10(N) | 1.4 log10(N) | 1.4 log10(N) | 1.4 log10(N) | 1.4 log10(N) | 0 | 0
